Article PMC10817917, “Alkyl deoxyglycoside-polymyxin combinations against critical priority carbapenem-resistant gram-negative bacteria” (Scientific Reports, 2024)
Like-named read-outs stand apart in the source and are kept apart here.

Experiments:
K. pneumoniae CQ4921 = assay: Broth microdilution MIC/MBC, glycosides with or without polymyxins; format: cell-based, Klebsiella pneumoniae; conditions: for MIC: Klebsiella pneumoniae, CQ4921
E. cloacae CQ1941 = assay: as above; format: cell-based; conditions: for MIC: Enterobacter cloacae, CQ1941
Caco-2 cells = assay: Resazurin cell viability assay (cytotoxicity); format: cell-based, human; conditions: Homo sapiens, Caco-2, 72 h, read-out: IC50
Description: (§1) Cytotoxicity of each compound alone or in combination with different polymyxin concentrations was evaluated through the resazurin cell viability assay[49] in human embryonic HEK-293T cells, as well as in human colon adenocarcinoma Caco-2 cells, after a 72-h long incubation period.
(§2) HEK-293T and Caco-2 cells were grown in RPMI 1640 medium (VWR) supplemented with 10% FBS (Biowest), 1% PenStrep (Sigma Aldrich), and 1% glutamine (Biowest) in a humidified incubator at 37 °C with a 5% CO2 atmosphere. Twice a week, the medium was aspirated, the cells were washed with DPBS (VWR), trypsinized with trypsin–EDTA solution (Biowest), and resuspended in fresh culture medium. The dose-dependent effects of each glycoside or glycoside-polymyxin combination were evaluated by the resazurin cell viability assay. Polymyxins (colistin sulfate and PMB sulfate for microbiological assays, European Pharmacopoeia Reference Standards, Sigma-Aldrich) were firstly dissolved in sterilized Mili-Q water to a stock concentration of 1 mg/mL, while glycosides were dissolved in DMSO to a stock concentration of 30 mM. 1.5 × 10^4 cells/well in 96.5 µL of medium were seeded onto 96-well plates and incubated at 37 °C for 24 h. For each compound, ten stock dilutions (with concentrations from 750 to 75 µM) were prepared in fresh medium immediately prior to incubation. 16 µL of each dilution were added to each well so that the final glycoside concentrations ranged from 100 to 10 µM in each row in a final assay volume of 120 µL. In addition, the previously prepared polymyxin stock solutions were diluted in fresh medium, affording new stocks of 8, 4, and 2 µg/mL. The same volume (7.5 µL/well) of PMB or colistin was then added to each row to achieve a final polymyxin concentration of 0.5, 0.25, and 0.125 µg/mL, respectively, regardless of the glycoside concentration. In assays without polymyxin, the same volume (7.5 µL/well) of medium was added. In all assays, the maximum DMSO concentration was 0.33%. After a 72-h incubation at 37 °C, 12 µL of a 0.15 mg/mL resazurin (Sigma-Aldrich) in sterilized Mili-Q water were added to each well, and the plates were left incubating for another 4 h at 37 °C. Resorufin was measured at 570/600 nm, and the percentage of resazurin reduction, corresponding to the cell viability percentage, was calculated according to Eq. (1)[60]. IC50 values were obtained by best fitting the dose-dependent inhibition curves using the Prism 9® software. The results were expressed as the mean ± SD of three independent replicates, with only data from analysis with R^2 > 0.90 being considered.1 %Cellviability=Abssample-Absmediumcontrol/Abscellcontrol-Absmediumcontrol×100

HEK-293T cells = assay: Resazurin cell viability assay (cytotoxicity); format: cell-based, human; conditions: 72 h, read-out: IC50
Description: as §1, §2

K. pneumoniae CQ1942 = assay: Broth microdilution MIC, glycosides with or without polymyxins; format: cell-based, Klebsiella pneumoniae; conditions: for MIC: Klebsiella pneumoniae, CQ1942
E. coli NCTC 13846 = assay: Broth microdilution MIC/MBC, glycosides with or without polymyxins; format: cell-based, Escherichia coli; conditions: strain B
[1] = alone, read-out: MICA (MIC of each compound individually)
[2] = combination with the lowest FICI
[3] = compound + colistin, lowest FICI

CCCCCCCCCCCC[C@H]1O[C@H](C)C[C@H](O)[C@H]1O [Compound 5, 1-(4,6-dideoxy-α-D-xylo-hexopyranosyl)dodecane]
MIC of colistin in combination with the compound (K. pneumoniae CQ4921; Cpd conc. 0.4 μg/mL, strain C): 0.5 µg/mL | MIC of colistin in combination with the compound (K. pneumoniae CQ4921; Cpd conc. 0.8 μg/mL, strain C): 0.5 µg/mL | MIC of colistin in combination with the compound (K. pneumoniae CQ4921; Cpd conc. 3.125 μg/mL, strain C): 0.125 µg/mL | MIC of colistin in combination with the compound (K. pneumoniae CQ4921; Cpd conc. 6.25 μg/mL, strain C): 0.125 µg/mL | MIC of colistin in combination with the compound (K. pneumoniae CQ4921; Cpd conc. 12.5 μg/mL, strain C): 0.125 µg/mL | MIC of colistin in combination with the compound (K. pneumoniae CQ4921; Cpd conc. […], strain C): 0.5 µg/mL | MIC (K. pneumoniae CQ4921; agent alone, no adjuvant (polymyxin conc. 0), strain C, read-out: MIC): > 100 µg/mL | MIC (K. pneumoniae CQ4921; [1]): > 100 µg/mL | MIC of compound in combination with PMB (K. pneumoniae CQ4921; PMB 0.25 μg/mL, strain C): > 100 µg/mL | MIC of compound in combination with PMB (K. pneumoniae CQ4921; PMB 0.5 μg/mL, strain C): 1.6 µg/mL | MIC of compound in combination with colistin (K. pneumoniae CQ4921; colistin 0.06 μg/mL, strain C): > 100 µg/mL | MBC of compound in combination with colistin (K. pneumoniae CQ4921; colistin 0.125 μg/mL, strain C): 6.3 µg/mL | MIC of compound in combination with colistin (K. pneumoniae CQ4921; colistin 0.125 μg/mL, strain C): 3.1 µg/mL | MIC of compound in combination with colistin (K. pneumoniae CQ4921; colistin 0.5 μg/mL, strain C): ≤ 0.1 µg/mL | MICA(A + B) (MIC of compound in combination with colistin) (K. pneumoniae CQ4921; [2]): 3.125 µg/mL | MICB(A + B) (MIC of colistin in combination with compound) (K. pneumoniae CQ4921; [2]): 0.125 µg/mL | Interpretation (of FICI) (K. pneumoniae CQ4921; compound + colistin): Synergy (Values ≤ 0.5 were considered synergistic) | FICI (K. pneumoniae CQ4921; [3]): 0.27 | MIC of colistin in combination with the compound (E. cloacae CQ1941; Cpd conc. 0.4 μg/mL, strain D): 0.5 µg/mL | MIC of colistin in combination with the compound (E. cloacae CQ1941; Cpd conc. 0.8 μg/mL, strain D): 0.5 µg/mL | MIC of colistin in combination with the compound (E. cloacae CQ1941; Cpd conc. 3.125 μg/mL, strain D): 0.125 µg/mL | MIC of colistin in combination with the compound (E. cloacae CQ1941; Cpd conc. 6.25 μg/mL, strain D): 0.125 µg/mL | MIC of colistin in combination with the compound (E. cloacae CQ1941; Cpd conc. 12.5 μg/mL, strain D): 0.125 µg/mL | MIC of colistin in combination with the compound (E. cloacae CQ1941; Cpd conc. […], strain D): 0.5 µg/mL | MIC (E. cloacae CQ1941; agent alone, no adjuvant (polymyxin conc. 0), strain D, read-out: MIC): > 100 µg/mL | MIC (E. cloacae CQ1941; [1]): > 100 µg/mL | MIC of compound in combination with PMB (E. cloacae CQ1941; PMB 0.25 μg/mL, strain D): > 100 µg/mL | MIC of compound in combination with PMB (E. cloacae CQ1941; PMB 0.5 μg/mL, strain D): 1.6 µg/mL | MIC of compound in combination with colistin (E. cloacae CQ1941; colistin 0.06 μg/mL, strain D): > 100 µg/mL | MBC of compound in combination with colistin (E. cloacae CQ1941; colistin 0.125 μg/mL, strain D): 6.3 µg/mL | MIC of compound in combination with colistin (E. cloacae CQ1941; colistin 0.125 μg/mL, strain D): 3.1 µg/mL | MIC of compound in combination with colistin (E. cloacae CQ1941; colistin 0.25 μg/mL, strain D): 3.1 µg/mL | MIC of compound in combination with colistin (E. cloacae CQ1941; colistin 0.5 μg/mL, strain D): ≤ 0.1 µg/mL | MICA(A + B) (MIC of compound in combination with colistin) (E. cloacae CQ1941; [2]): 3.125 µg/mL | MICB(A + B) (MIC of colistin in combination with compound) (E. cloacae CQ1941; [2]): 0.125 µg/mL | FICI (E. cloacae CQ1941; [3]): 0.27 | IC50 (Caco-2 cells; Colistin 0.25 μg/mL): 64.9 ± 0.98 µM | IC50 (Caco-2 cells; Colistin 0.5 μg/mL): 64.1 ± 1.09 µM | IC50 (Caco-2 cells; No polymyxin): 62.4 ± 1.22 µM | IC50 (Caco-2 cells; PMB 0.25 μg/mL): 61.1 ± 1.06 µM | IC50 (Caco-2 cells; tested alone (no polymyxin adjuvant)): 18.7 µg/mL | IC50 (HEK-293T cells; Homo sapiens, HEK-293T, Colistin 0.125 μg/mL): 79.7 ± 1.05 µM | IC50 (HEK-293T cells; Homo sapiens, HEK-293T, Colistin 0.25 μg/mL): 78.6 ± 3.28 µM | IC50 (HEK-293T cells; Homo sapiens, HEK-293T, Colistin 0.5 μg/mL): 80 ± 1.69 µM | IC50 (HEK-293T cells; Homo sapiens, HEK-293T, No polymyxin): 79.74 ± 0.53 µM | IC50 (HEK-293T cells; Homo sapiens, HEK-293T, PMB 0.125 μg/mL): 79.2 ± 2 µM | IC50 (HEK-293T cells; Homo sapiens, HEK-293T, PMB 0.25 μg/mL): 79.4 ± 1.58 µM | IC50 (HEK-293T cells; Homo sapiens, HEK-293T, PMB 0.5 μg/mL): 83.2 ± 0.96 µM | IC50 (HEK-293T cells; Homo sapiens, HEK-293T, tested alone (no polymyxin adjuvant)): 24 µg/mL | IC50 (HEK-293T cells; No polymyxin): 79.7 µM | MIC of colistin in combination with the compound (K. pneumoniae CQ1942; Cpd conc. 0.4 μg/mL, strain E): 0.5 µg/mL | MIC of colistin in combination with the compound (K. pneumoniae CQ1942; Cpd conc. 0.8 μg/mL, strain E): 0.5 µg/mL | MIC of colistin in combination with the compound (K. pneumoniae CQ1942; Cpd conc. 3.125 μg/mL, strain E): 0.25 µg/mL | MIC of colistin in combination with the compound (K. pneumoniae CQ1942; Cpd conc. 6.25 μg/mL, strain E): 0.25 µg/mL | MIC of colistin in combination with the compound (K. pneumoniae CQ1942; Cpd conc. 12.5 μg/mL, strain E): 0.25 µg/mL | MIC of colistin in combination with the compound (K. pneumoniae CQ1942; Cpd conc. […], strain E): 0.5 µg/mL | MIC (K. pneumoniae CQ1942; agent alone, no adjuvant (polymyxin conc. 0), strain E, read-out: MIC): > 100 µg/mL | MIC (K. pneumoniae CQ1942; [1]): > 100 µg/mL | MIC of compound in combination with PMB (K. pneumoniae CQ1942; PMB 0.25 μg/mL, strain E): > 100 µg/mL | MIC of compound in combination with PMB (K. pneumoniae CQ1942; PMB 0.5 μg/mL, strain E): 1.6 µg/mL | MIC of compound in combination with colistin (K. pneumoniae CQ1942; colistin 0.06 μg/mL, strain E): > 100 µg/mL | MIC of compound in combination with colistin (K. pneumoniae CQ1942; colistin 0.125 μg/mL, strain E): > 100 µg/mL | MIC of compound in combination with colistin (K. pneumoniae CQ1942; colistin 0.5 μg/mL, strain E): ≤ 0.1 µg/mL | MICA(A + B) (MIC of compound in combination with colistin) (K. pneumoniae CQ1942; [2]): 3.125 µg/mL | MICB(A + B) (MIC of colistin in combination with compound) (K. pneumoniae CQ1942; [2]): 0.25 µg/mL | Interpretation (of FICI) (K. pneumoniae CQ1942; compound + colistin): Additive (from 0.5 to 1.0 were additive) | FICI (K. pneumoniae CQ1942; [3]): 0.52 | MIC of colistin in combination with the compound (E. coli NCTC 13846; Cpd conc. 0.4 μg/mL): > 0.5 µg/mL | MIC of colistin in combination with the compound (E. coli NCTC 13846; Cpd conc. 0.8 μg/mL): > 0.5 µg/mL | MIC of colistin in combination with the compound (E. coli NCTC 13846; Cpd conc. 3.125 μg/mL): > 0.5 µg/mL | MIC of colistin in combination with the compound (E. coli NCTC 13846; Cpd conc. 6.25 μg/mL): > 0.5 µg/mL | MIC of colistin in combination with the compound (E. coli NCTC 13846; Cpd conc. 12.5 μg/mL): > 0.5 µg/mL | MIC of colistin in combination with the compound (E. coli NCTC 13846; Cpd conc. […]): > 0.5 µg/mL | MIC (E. coli NCTC 13846; Escherichia coli, NCTC13846, agent alone, no adjuvant (polymyxin conc. 0), read-out: MIC): > 100 µg/mL | MIC of compound in combination with PMB (E. coli NCTC 13846; PMB 0.25 μg/mL): > 100 µg/mL | MIC of compound in combination with PMB (E. coli NCTC 13846; PMB 0.5 μg/mL): > 100 µg/mL | MIC of compound in combination with colistin (E. coli NCTC 13846; colistin 0.06 μg/mL): > 100 µg/mL | MBC of compound in combination with colistin (E. coli NCTC 13846; colistin 0.125 μg/mL): > 100|> 100 μg/mL | MIC of compound in combination with colistin (E. coli NCTC 13846; colistin 0.125 μg/mL): > 100|> 100 μg/mL | MIC of compound in combination with colistin (E. coli NCTC 13846; colistin 0.25 μg/mL): > 100 µg/mL | MIC of compound in combination with colistin (E. coli NCTC 13846; colistin 0.5 μg/mL): > 100 µg/mL
